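The concentration for 50% growth inhibition is given as GI50. Definition used: TGI = concentration required for complete inhibition of growth.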
What was measured:
Experiment in all cases: NCI anticancer screen, dose series, 384-well format
[1] = test system: SNB-19 CNS
[2] = test system: NCI-H226 lung
[3] = test system: OVCAR-4 ovarian
[4] = test system: HCT-15 colon
[5] = test system: HL-60(TB) leukemia
[6] = test system: U251 glioblastoma
[7] = test system: SK-MEL-2 melanoma
[8] = test system: COLO 205 colon
[9] = test system: MALME-3M melanoma
[10] = test system: K-562 leukemia
[11] = test system: NCI-H460 NSCLC
[12] = test system: HT29 colon
[13] = test system: NCI-H23 lung
[14] = test system: CCRF-CEM leukemia
[15] = test system: ACHN renal
[16] = test system: UACC-62 melanoma
[17] = test system: MCF7 breast
[18] = test system: SF-268 CNS
[19] = test system: A498 renal
[20] = test system: PC-3 prostate
[21] = test system: HCC-2998 colon
[22] = test system: M14 melanoma
[23] = test system: BT-549 breast
[24] = test system: SR leukemia
[25] = test system: RPMI-8226 leukemia
[26] = test system: RXF 393 renal
[27] = test system: SF-295 CNS
[28] = test system: NCI/ADR-RES ovarian
[29] = test system: T-47D breast
[30] = test system: DU-145 prostate
[31] = test system: OVCAR-8 ovarian
[32] = test system: SN12C renal
[33] = test system: SK-MEL-5 melanoma
[34] = test system: MDA-MB-468 breast
[35] = test system: IGROV1 ovarian
[36] = test system: UO-31 renal
[37] = test system: SF-539 CNS
[38] = test system: NCI-H322M lung
[39] = test system: KM12 colon
[40] = test system: MDA-MB-231 breast
[41] = test system: LOX IMVI melanoma
[42] = test system: SK-OV-3 ovarian
[43] = test system: SK-MEL-28 melanoma
[44] = test system: CAKI-1 renal
[45] = test system: OVCAR-5 ovarian
[46] = test system: UACC-257 melanoma
[47] = test system: TK-10 renal
[48] = test system: A549 NSCLC
[49] = test system: MOLT-4 leukemia
[50] = test system: HOP-62 NSCLC
[51] = test system: NCI-H522 lung
[52] = test system: MDA-MB-435 melanoma
[53] = test system: SW-620 colon
[54] = test system: 786-0 renal
[55] = test system: OVCAR-3 ovarian

CN(C)C/C=C/C(=O)Nc1ccc(C(=O)Nc2cccc(Nc3ncc(Cl)c(-c4c[nH]c5ccccc45)n3)c2)cc1
GI50 [1]: 20.1 nM | TGI [1]: 174 nM | GI50 [2]: 12.4 nM | TGI [2]: 33.6 nM | GI50 [3]: < 10 nM | TGI [3]: 25.4 nM | GI50 [4]: 45.1 nM | TGI [4]: 213 nM | GI50 [5]: < 10 nM | TGI [5]: < 10 nM | GI50 [6]: < 10 nM | TGI [6]: 27.4 nM | GI50 [7]: < 10 nM | TGI [7]: 13.3 nM | GI50 [8]: < 10 nM | TGI [8]: 13.4 nM | GI50 [9]: 14.7 nM | TGI [9]: 29.9 nM | GI50 [10]: < 10 nM | TGI [10]: 103 nM | GI50 [11]: 17.3 nM | TGI [11]: 37.2 nM | GI50 [12]: 20 nM | TGI [12]: 47.5 nM | GI50 [13]: 10.6 nM | TGI [13]: 25.4 nM | GI50 [14]: < 10 nM | TGI [14]: < 10 nM | GI50 [15]: 20.5 nM | TGI [15]: 83 nM | GI50 [16]: < 10 nM | TGI [16]: 18.7 nM | GI50 [17]: < 10 nM | TGI [17]: 166 nM | GI50 [18]: < 10 nM | TGI [18]: 17.4 nM | GI50 [19]: 17.2 nM | TGI [19]: 55.9 nM | GI50 [20]: 20.6 nM | TGI [20]: 54.5 nM | GI50 [21]: < 10 nM | TGI [21]: 20.6 nM | GI50 [22]: 14.5 nM | TGI [22]: 29.5 nM | GI50 [23]: < 10 nM | TGI [23]: 13.7 nM | GI50 [24]: < 10 nM | TGI [24]: < 10 nM | GI50 [25]: 13.7 nM | TGI [25]: 26.8 nM | GI50 [26]: < 10 nM | TGI [26]: < 10 nM | GI50 [27]: 31.4 nM | TGI [27]: 99.4 nM | GI50 [28]: 525 nM | TGI [28]: 12200 nM | GI50 [29]: 14.2 nM | TGI [29]: 73.3 nM | GI50 [30]: 16.2 nM | TGI [30]: 60.2 nM | GI50 [31]: 16.5 nM | TGI [31]: 39.8 nM | GI50 [32]: 10.3 nM | TGI [32]: 29.4 nM | GI50 [33]: < 10 nM | TGI [33]: 20.7 nM | GI50 [34]: < 10 nM | TGI [34]: 14.4 nM | GI50 [35]: 12.5 nM | TGI [35]: 51.9 nM | GI50 [36]: 105 nM | TGI [36]: 372 nM | GI50 [37]: < 10 nM | TGI [37]: 19.5 nM | GI50 [38]: 20.9 nM | TGI [38]: 49.5 nM | GI50 [39]: 17.7 nM | TGI [39]: 41.1 nM | GI50 [40]: < 10 nM | TGI [40]: 44.8 nM | GI50 [41]: < 10 nM | TGI [41]: 28.2 nM | GI50 [42]: 11.4 nM | TGI [42]: 45.9 nM | GI50 [43]: < 10 nM | TGI [43]: 15.2 nM | GI50 [44]: 14.2 nM | TGI [44]: 46.9 nM | GI50 [45]: 21.4 nM | TGI [45]: 1200 nM | GI50 [46]: < 10 nM | TGI [46]: 21.3 nM | GI50 [47]: 21.8 nM | TGI [47]: 55.9 nM | GI50 [48]: 31.1 nM | TGI [48]: 110 nM | GI50 [49]: < 10 nM | TGI [49]: 12.4 nM | GI50 [50]: 15.8 nM | TGI [50]: 47.9 nM | GI50 [51]: < 10 nM | TGI [51]: < 10 nM | GI50 [52]: 13.3 nM | TGI [52]: 35.4 nM | GI50 [53]: < 10 nM | TGI [53]: 42 nM | GI50 [54]: 23.9 nM | TGI [54]: 83.3 nM | GI50 [55]: < 10 nM | TGI [55]: 11 nM

From PubChem BioAssay (NCI)
